Test results: the NIST ThermoML archive (doi:10.1016/j.jct.2018.03.019)
± gives the expanded uncertainty stated by the source.

Conditions: Liquid, Ebulliometric method (Recirculating still)

## CC(C)=O [acetone]
329.56 K
  vapor or sublimation pressure: 101.3 ± 0.66 kPa

## CC(=O)N(C)C [N,N-dimethylethanamide]
439.05 K
  vapor or sublimation pressure: 101.3 ± 0.71 kPa

## CC(C)N(C)C [N,N-dimethylisopropylamine]
339.13 K
  vapor or sublimation pressure: 101.3 ± 0.71 kPa

## O=Cc1ccco1 [2-furaldehyde]
435.15 K
  vapor or sublimation pressure: 101.3 ± 0.71 kPa
